Reference: patent publication US7138361B2, “Herbicidal heterocycles” (E. I. du Pont de Nemours and Company, priority 2000, dated 2006)

How the values were obtained:
Experiment in all cases: Test C postemergence
Type in all cases: in vivo
[1] = system: velvetleaf (Abutilon theophrasti)
How it was run: (§1)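 Herbicidal effect is a visual 0–100 score (100 = complete control) assigned versus untreated plants, 12 to 14 days after spraying in the greenhouse. Test compounds were applied in a non-phytotoxic, surfactant-containing solvent.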

[2] = system: kochia (Kochia scoparia)
How it was run: as §1

[3] = system: yellow nutsedge (Cyperus esculentus)
How it was run: as §1

[4] = system: morningglory (Ipomoea hederacea)
How it was run: as §1

[5] = system: corn (Zea mays)
How it was run: as §1

[6] = system: crabgrass (Digitaria sanguinalis)
How it was run: as §1

[7] = system: common ragweed (Ambrosia elatior)
How it was run: as §1

[8] = system: soybean (Glycine max)
How it was run: as §1

[9] = system: woolly cupgrass (Eriochloa villosa)
How it was run: as §1

[10] = system: cocklebur (Xanthium strumarium)
How it was run: as §1

[11] = system: Surinam grass (Brachiaria decumbens)
How it was run: as §1

[12] = system: pigweed (Amaranthus retroflexus)
How it was run: as §1

[13] = system: giant foxtail (Setaria faberii)
How it was run: as §1

[14] = system: goosegrass (Eleusine indica)
How it was run: as §1

[15] = system: johnsongrass (Sorghum halepense)
How it was run: as §1

[16] = system: chickweed (Stellaria media)
How it was run: as §1

[17] = Rate 125 g/ha, scale 0 to 100, 0 no effect, 100 complete control
[18] = Rate 62 g/ha, scale 0 to 100, 0 no effect, 100 complete control
[19] = Rate 250 g/ha, scale 0 to 100 (0 no effect, 100 complete control)
[20] = Rate 500 g/ha, scale 0 to 100 (0 no effect, 100 complete control)

## CCC(CC)c1ccn(C2SCN(c3cccc(C(F)(F)F)c3)C2=O)n1 (centres unmarked) [Compound 21]
[1]; Rate 31 g/ha, scale 0 to 100
  Plant response rating, Velvetleaf: 20
[1]; [17]
  Plant response rating, Velvetleaf: 30
[2]; Rate 31 g/ha, scale 0 to 100
  Plant response rating, Kochia: 30
[2]; [17]
  Plant response rating, Kochia: 40
[3]; Rate 31 g/ha, scale 0 to 100
  Plant response rating, Nutsedge: 0
[3]; [17]
  Plant response rating, Nutsedge: 0
[4]; Rate 31 g/ha, scale 0 to 100
  Plant response rating, Morningglory: 0
[4]; [17]
  Plant response rating, Morningglory: 60
[5]; Rate 31 g/ha, scale 0 to 100
  Plant response rating, Corn: 0
[5]; [17]
  Plant response rating, Corn: 0
[6]; Rate 31 g/ha, scale 0 to 100
  Plant response rating, Crabgrass: 0
[6]; [17]
  Plant response rating, Crabgrass: 0
[7]; Rate 31 g/ha, scale 0 to 100
  Plant response rating, Ragweed, Common: 0
[7]; [17]
  Plant response rating, Ragweed, Common: 50
[8]; Rate 31 g/ha, scale 0 to 100
  Plant response rating, Soybean: 0
[8]; [17]
  Plant response rating, Soybean: 30
[9]; Rate 31 g/ha, scale 0 to 100
  Plant response rating, Cupgrass, Woolly: 0
[9]; [17]
  Plant response rating, Cupgrass, Woolly: 0
[10]; Rate 31 g/ha, scale 0 to 100
  Plant response rating, Cocklebur: 20
[10]; [17]
  Plant response rating, Cocklebur: 30
[11]; Rate 31 g/ha, scale 0 to 100
  Plant response rating, Surinam grass: 0
[11]; [18]
  Plant response rating, Surinam grass: 0
[11]; [17]
  Plant response rating, Surinam grass: 0
[12]; Rate 31 g/ha, scale 0 to 100
  Plant response rating, Pigweed: 50
[12]; [17]
  Plant response rating, Pigweed: 70
[13]; Rate 31 g/ha, scale 0 to 100
  Plant response rating, Foxtail, Giant: 0
[13]; [17]
  Plant response rating, Foxtail, Giant: 0
[14]; Rate 31 g/ha, scale 0 to 100
  Plant response rating, Goosegrass: 0
[14]; [17]
  Plant response rating, Goosegrass: 0
[15]; Rate 31 g/ha, scale 0 to 100
  Plant response rating, Johnsongrass: 0
[15]; [17]
  Plant response rating, Johnsongrass: 50
[16]; Rate 31 g/ha, scale 0 to 100
  Plant response rating, Chickweed: 30
[16]; [18]
  Plant response rating, Chickweed: 50
[16]; [17]
  Plant response rating, Chickweed: 50

## CCC(CC)c1ccn(C2SCN(c3cccc(C(F)(F)F)c3)C2=O)n1 (centres unmarked) [Compound 25]
[1]; [17]
  Plant response rating, Velvetleaf: 40
[1]; [19]
  Plant response rating, Velvetleaf: 50
[1]; [20]
  Plant response rating, Velvetleaf: 50
[2]; [17]
  Plant response rating, Kochia: 70
[2]; [19]
  Plant response rating, Kochia: 70
[2]; [20]
  Plant response rating, Kochia: 70
[3]; [17]
  Plant response rating, Nutsedge: 0
[3]; [19]
  Plant response rating, Nutsedge: 0
[3]; [20]
  Plant response rating, Nutsedge: 0
[4]; [19]
  Plant response rating, Morningglory: 80
[4]; [20]
  Plant response rating, Morningglory: 100
[5]; [17]
  Plant response rating, Corn: 0
[5]; [19]
  Plant response rating, Corn: 20
[5]; [20]
  Plant response rating, Corn: 30
[6]; [17]
  Plant response rating, Crabgrass: 30
[6]; [19]
  Plant response rating, Crabgrass: 70
[6]; [20]
  Plant response rating, Crabgrass: 90
[7]; [17]
  Plant response rating, Ragweed, Common: 0
[7]; [19]
  Plant response rating, Ragweed, Common: 30
[7]; [20]
  Plant response rating, Ragweed, Common: 40
[8]; [17]
  Plant response rating, Soybean: 20
[8]; [19]
  Plant response rating, Soybean: 30
[8]; [20]
  Plant response rating, Soybean: 30
[9]; [17]
  Plant response rating, Cupgrass, Woolly: 40
[9]; [19]
  Plant response rating, Cupgrass, Woolly: 60
[9]; [20]
  Plant response rating, Cupgrass, Woolly: 70
[10]; [17]
  Plant response rating, Cocklebur: 60
[10]; [19]
  Plant response rating, Cocklebur: 60
[10]; [20]
  Plant response rating, Cocklebur: 60
[11]; [18]
  Plant response rating, Surinam grass: 0
[11]; [17]
  Plant response rating, Surinam grass: 0
[11]; [19]
  Plant response rating, Surinam grass: 0
[11]; [20]
  Plant response rating, Surinam grass: 0
[12]; [17]
  Plant response rating, Pigweed: 90
[12]; [19]
  Plant response rating, Pigweed: 100
[12]; [20]
  Plant response rating, Pigweed: 100
[13]; [17]
  Plant response rating, Foxtail, Giant: 30
[13]; [19]
  Plant response rating, Foxtail, Giant: 80
[13]; [20]
  Plant response rating, Foxtail, Giant: 90
[14]; [17]
  Plant response rating, Goosegrass: 20
[14]; [19]
  Plant response rating, Goosegrass: 60
[14]; [20]
  Plant response rating, Goosegrass: 60
[15]; [17]
  Plant response rating, Johnsongrass: 20
[15]; [19]
  Plant response rating, Johnsongrass: 50
[15]; [20]
  Plant response rating, Johnsongrass: 90
[16]; [18]
  Plant response rating, Chickweed: 60
[16]; [17]
  Plant response rating, Chickweed: 70
[16]; [19]
  Plant response rating, Chickweed: 80
[16]; [20]
  Plant response rating, Chickweed: 90

## CC(C)(C)c1ccn(C2SCN(c3cccc(OC(F)F)c3)C2=O)n1 (centres unmarked) [Compound 36]
[1]; Rate 31 g/ha, scale 0 to 100
  Plant response rating, Velvetleaf: 0
[1]; [17]
  Plant response rating, Velvetleaf: 0
[1]; [19]
  Plant response rating, Velvetleaf: 30
[2]; Rate 31 g/ha, scale 0 to 100
  Plant response rating, Kochia: 20
[2]; [17]
  Plant response rating, Kochia: 70
[2]; [19]
  Plant response rating, Kochia: 80
[3]; Rate 31 g/ha, scale 0 to 100
  Plant response rating, Nutsedge: 0
[3]; [17]
  Plant response rating, Nutsedge: 0
[3]; [19]
  Plant response rating, Nutsedge: 30
[4]; Rate 31 g/ha, scale 0 to 100
  Plant response rating, Morningglory: 0
[4]; [17]
  Plant response rating, Morningglory: 0
[4]; [19]
  Plant response rating, Morningglory: 20
[5]; Rate 31 g/ha, scale 0 to 100
  Plant response rating, Corn: 0
[5]; [17]
  Plant response rating, Corn: 0
[5]; [19]
  Plant response rating, Corn: 20
[6]; Rate 31 g/ha, scale 0 to 100
  Plant response rating, Crabgrass: 0
[6]; [17]
  Plant response rating, Crabgrass: 0
[6]; [19]
  Plant response rating, Crabgrass: 30
[7]; Rate 31 g/ha, scale 0 to 100
  Plant response rating, Ragweed, Common: 0
[7]; [17]
  Plant response rating, Ragweed, Common: 0
[7]; [19]
  Plant response rating, Ragweed, Common: 30
[8]; Rate 31 g/ha, scale 0 to 100
  Plant response rating, Soybean: 0
[8]; [17]
  Plant response rating, Soybean: 0
[8]; [19]
  Plant response rating, Soybean: 0
[9]; Rate 31 g/ha, scale 0 to 100
  Plant response rating, Cupgrass, Woolly: 0
[9]; [17]
  Plant response rating, Cupgrass, Woolly: 0
[9]; [19]
  Plant response rating, Cupgrass, Woolly: 0
[10]; Rate 31 g/ha, scale 0 to 100
  Plant response rating, Cocklebur: 0
[10]; [17]
  Plant response rating, Cocklebur: 0
[10]; [19]
  Plant response rating, Cocklebur: 0
[11]; Rate 31 g/ha, scale 0 to 100
  Plant response rating, Surinam grass: 0
[11]; [18]
  Plant response rating, Surinam grass: 0
[11]; [17]
  Plant response rating, Surinam grass: 0
[11]; [19]
  Plant response rating, Surinam grass: 0
[12]; Rate 31 g/ha, scale 0 to 100
  Plant response rating, Pigweed: 30
[12]; [17]
  Plant response rating, Pigweed: 60
[12]; [19]
  Plant response rating, Pigweed: 60
[13]; Rate 31 g/ha, scale 0 to 100
  Plant response rating, Foxtail, Giant: 0
[13]; [17]
  Plant response rating, Foxtail, Giant: 0
[13]; [19]
  Plant response rating, Foxtail, Giant: 20
[14]; Rate 31 g/ha, scale 0 to 100
  Plant response rating, Goosegrass: 0
[14]; [17]
  Plant response rating, Goosegrass: 0
[14]; [19]
  Plant response rating, Goosegrass: 0
[15]; Rate 31 g/ha, scale 0 to 100
  Plant response rating, Johnsongrass: 0
[15]; [17]
  Plant response rating, Johnsongrass: 0
[15]; [19]
  Plant response rating, Johnsongrass: 0
[16]; Rate 31 g/ha, scale 0 to 100
  Plant response rating, Chickweed: 0
[16]; [18]
  Plant response rating, Chickweed: 0
[16]; [17]
  Plant response rating, Chickweed: 0
[16]; [19]
  Plant response rating, Chickweed: 50

## O=C1C(n2ccc(C3CCC3)n2)SCN1c1cccc(C(F)(F)F)c1 (centres unmarked) [Compound 37]
[1]; Rate 31 g/ha, scale 0 to 100
  Plant response rating, Velvetleaf: 0
[1]; [17]
  Plant response rating, Velvetleaf: 0
[1]; [19]
  Plant response rating, Velvetleaf: 0
[2]; Rate 31 g/ha, scale 0 to 100
  Plant response rating, Kochia: 0
[2]; [17]
  Plant response rating, Kochia: 20
[2]; [19]
  Plant response rating, Kochia: 70
[3]; Rate 31 g/ha, scale 0 to 100
  Plant response rating, Nutsedge: 0
[3]; [17]
  Plant response rating, Nutsedge: 0
[3]; [19]
  Plant response rating, Nutsedge: 0
[4]; Rate 31 g/ha, scale 0 to 100
  Plant response rating, Morningglory: 0
[4]; [17]
  Plant response rating, Morningglory: 0
[4]; [19]
  Plant response rating, Morningglory: 0
[5]; Rate 31 g/ha, scale 0 to 100
  Plant response rating, Corn: 0
[5]; [17]
  Plant response rating, Corn: 0
[5]; [19]
  Plant response rating, Corn: 0
[6]; Rate 31 g/ha, scale 0 to 100
  Plant response rating, Crabgrass: 0
[6]; [17]
  Plant response rating, Crabgrass: 0
[6]; [19]
  Plant response rating, Crabgrass: 0
[7]; Rate 31 g/ha, scale 0 to 100
  Plant response rating, Ragweed, Common: 0
[7]; [17]
  Plant response rating, Ragweed, Common: 0
[7]; [19]
  Plant response rating, Ragweed, Common: 0
[8]; Rate 31 g/ha, scale 0 to 100
  Plant response rating, Soybean: 0
[8]; [17]
  Plant response rating, Soybean: 0
[8]; [19]
  Plant response rating, Soybean: 0
[9]; Rate 31 g/ha, scale 0 to 100
  Plant response rating, Cupgrass, Woolly: 0
[9]; [17]
  Plant response rating, Cupgrass, Woolly: 0
[9]; [19]
  Plant response rating, Cupgrass, Woolly: 0
[10]; Rate 31 g/ha, scale 0 to 100
  Plant response rating, Cocklebur: 0
[10]; [17]
  Plant response rating, Cocklebur: 0
[10]; [19]
  Plant response rating, Cocklebur: 0
[11]; Rate 31 g/ha, scale 0 to 100
  Plant response rating, Surinam grass: 0
[11]; [17]
  Plant response rating, Surinam grass: 0
[11]; [19]
  Plant response rating, Surinam grass: 0
[12]; Rate 31 g/ha, scale 0 to 100
  Plant response rating, Pigweed: 0
[12]; [17]
  Plant response rating, Pigweed: 0
[12]; [19]
  Plant response rating, Pigweed: 0
[13]; Rate 31 g/ha, scale 0 to 100
  Plant response rating, Foxtail, Giant: 0
[13]; [17]
  Plant response rating, Foxtail, Giant: 0
[13]; [19]
  Plant response rating, Foxtail, Giant: 0
[14]; Rate 31 g/ha, scale 0 to 100
  Plant response rating, Goosegrass: 0
[14]; [17]
  Plant response rating, Goosegrass: 0
[14]; [19]
  Plant response rating, Goosegrass: 0
[15]; Rate 31 g/ha, scale 0 to 100
  Plant response rating, Johnsongrass: 0
[15]; [17]
  Plant response rating, Johnsongrass: 0
[15]; [19]
  Plant response rating, Johnsongrass: 0
[16]; Rate 31 g/ha, scale 0 to 100
  Plant response rating, Chickweed: 0
[16]; [18]
  Plant response rating, Chickweed: 0
[16]; [17]
  Plant response rating, Chickweed: 0
[16]; [19]
  Plant response rating, Chickweed: 0
